These results are taken from patent US10570108B2, “Substituted benzofuran compounds for the treatment of hepatitis C” (BRISTOL-MYERS SQUIBB COMPANY, priority 2015, dated 2020).

The first data set has as its system HCV replicon. Kind of data set: HCV replicon luciferase assay. The class given is cell-based. To be noted: Hepatitis C virus, Huh-7, 72 h. As for the experimental part: Cell lines. The cell lines used to evaluate compounds consist of a human hepatocyte derived cell line (Huh-7) that constitutively expresses a genotype 1b (Con-1) HCV replicon or a genotype 1b (Con-1) HCV replicon with an asparagine replacing the cysteine at amino acid 316, or a genotype 2a (JFH-1) replicon, containing a Renilla luciferase reporter gene. These cells were maintained in Dulbecco's modified Eagle medium (DMEM) containing 10% FBS, 100 U/mL penicillin/streptomycin and 1.0 mg/mL G418.
HCV replicon luciferase assay. To evaluate compound efficacy, titrated compounds were transferred to sterile 384-well tissue culture treated plates, and the plates were seeded with HCV replicon cells (50 μL at a density of 2.4×10^3 cells/well) in DMEM containing 4% FBS (final DMSO concentration at 0.5%). After 3 days incubation at 37° C., cells were analyzed for Renilla Luciferase activity using the EnduRen substrate (Promega cat #E6485) according to the manufacturer's directions. Briefly, the EnduRen substrate was diluted in DMEM and then added to the plates to a final concentration of 7.5 μM. The plates were incubated for at least 1 h at 37° C. then read on a Viewlux Imager (PerkinElmer) using a luminescence program. The 50% effective concentration (EC50) was calculated using the four-parameter logistic formula noted above.
(A replicon is a self-replicating genome or part of one, used to study replication in cells.)
As a reminder, the EC50 is the midpoint of the concentration-response curve. A low value points to an effect from little substance. `CC[C@H](COCc1ccccc1)NC(=O)c1cccc(-c2cc3c(C(=O)NC)c(-c4ccc(F)cc4)oc3cc2N(CC)CC)c1` [Compound 1024] came in with an EC50 of 100 to 1000 nM. `CCN(CC)c1cc2oc(-c3ccc(F)cc3)c(C(=O)NC)c2cc1-c1cccc(C(=O)NCCOCc2ccccc2)c1` [Compound 1025] gave an EC50 of under 100 nM. In turn, `CCN(CC)c1cc2oc(-c3ccc(F)cc3)c(C(=O)NC)c2cc1-c1cccc(C(=O)NC2CCNC2=O)c1` (centres unmarked) [Compound 1026] returned an EC50 of 11.1 nM. Same read-out and setting: the same measure for `CCN(CC)c1cc2oc(-c3ccc(F)cc3)c(C(=O)NC)c2cc1-c1cccc(C(=O)NC2CNC(=O)C2)c1` (centres unmarked) [Compound 1027]: under 100 nM; for `CCN(CC)c1cc2oc(-c3ccc(F)cc3)c(C(=O)NC)c2cc1-c1cccc(C(=O)NC2CCOCC2)c1` [Compound 1028]: under 100 nM. With `CCN(CC)c1cc2oc(-c3ccc(F)cc3)c(C(=O)NC)c2cc1-c1cccc(C(=O)NC2CCOC2)c1` (centres unmarked) [Compound 1029], the EC50 was under 100 nM. Take `CCN(CC)c1cc2oc(-c3ccc(F)cc3)c(C(=O)NC)c2cc1-c1cccc(C(=O)N[C@@H]2C3CCC(C3)[C@@H]2CO)c1` (some centres unmarked) [Compound 1030]: the EC50 was under 100 nM. On the same count and under the same terms, the same measure for `CCN(CC)c1cc2oc(-c3ccc(F)cc3)c(C(=O)NC)c2cc1-c1cccc(C(=O)N[C@@]2(C)[C@@H](C(=O)OC)C[C@H]3C[C@@H]2C3(C)C)c1` [Compound 1031]: 116 nM; for `CCN(CC)c1cc2oc(-c3ccc(F)cc3)c(C(=O)NC)c2cc1-c1cccc(C(=O)N[C@]2(C)[C@H](C(=O)OC)C[C@@H]3C[C@H]2C3(C)C)c1` [Compound 1032]: under 100 nM. `CCN(CC)c1cc2oc(-c3ccc(F)cc3)c(C(=O)NC)c2cc1-c1cccc(C(=O)NC(C)[C@@]23C[C@@H]4C[C@@H](C[C@@](O)(C4)C2)C3)c1` (some centres unmarked) [Compound 1033] came in with an EC50 of under 100 nM. The same measure, in the same setting: the same measure for `CCN(CC)c1cc2oc(-c3ccc(F)cc3)c(C(=O)NC)c2cc1-c1cccc(C(=O)N[C@@]23C[C@@H]4C[C@@H](C[C@@](O)(C4)C2)C3)c1` [Compound 1034]: under 100 nM. The same measure, in the same setting: to `CCN(CC)c1cc2oc(-c3ccc(F)cc3)c(C(=O)NC)c2cc1-c1cccc(C(=O)NC23CC4(C)CC(C)(CC(O)(C4)C2)C3)c1` [Compound 1035] belongs under 100 nM; to `CCN(CC)c1cc2oc(-c3ccc(F)cc3)c(C(=O)NC)c2cc1-c1cccc(C(=O)NCC2(C)COC2)c1` [Compound 1036], 26.6 nM.

With `CCN(CC)c1cc2oc(-c3ccc(F)cc3)c(C(=O)NC)c2cc1-c1cccc(C(=O)NCC2(CO)COC2)c1` [Compound 1037], the EC50 was under 100 nM. Take `CCN(CC)c1cc2oc(-c3ccc(F)cc3)c(C(=O)NC)c2cc1-c1cccc(C(=O)N[C@H]2C3CCC(C3)[C@H]2C(=O)O)c1` (some centres unmarked) [Compound 1038]: the EC50 lay in the range of 100 to 1000 nM. With `CCN(CC)c1cc2oc(-c3ccc(F)cc3)c(C(=O)NC)c2cc1-c1cccc(C(=O)NCCCS(=O)(=O)O)c1` [Compound 1039], the EC50 was over 1000 nM. On the same count and under the same terms, the same measure for `CCN(CC)c1cc2oc(-c3ccc(F)cc3)c(C(=O)NC)c2cc1-c1cccc(C(=O)NCS(=O)(=O)O)c1` [Compound 1040]: over 1000 nM; for `CCN(CC)c1cc2oc(-c3ccc(F)cc3)c(C(=O)NC)c2cc1-c1cccc(C(=O)N[C@H]2CCC[C@H]2C(=O)O)c1` [Compound 1041]: 135 nM; for `CCN(CC)c1cc2oc(-c3ccc(F)cc3)c(C(=O)NC)c2cc1-c1cccc(C(=O)N[C@H]2CCC[C@H]2C(=O)N[C@H]2CCC[C@H]2C(=O)O)c1` [Compound 1042]: 100 to 1000 nM. The same measure, in the same setting: to `CCN(CC)c1cc2oc(-c3ccc(F)cc3)c(C(=O)NC)c2cc1-c1cccc(C(=O)N[C@H](CC(=O)O)CC(C)C)c1` [Compound 1043] belongs under 100 nM; to `CCN(CC)c1cc2oc(-c3ccc(F)cc3)c(C(=O)NC)c2cc1-c1cccc(C(=O)N[C@H](CC(=O)N[C@H](CC(=O)O)CC(C)C)CC(C)C)c1` [Compound 1044], 100 to 1000 nM; to `CCN(CC)c1cc2oc(-c3ccc(F)cc3)c(C(=O)NC)c2cc1-c1cccc(C(=O)N[C@@H]2CCCC[C@H]2C(=O)N[C@@H]2CCCC[C@H]2C(=O)O)c1` [Compound 1045], over 1000 nM. Still for that read-out and setting: to `CCN(CC)c1cc2oc(-c3ccc(F)cc3)c(C(=O)NC)c2cc1-c1cccc(C(=O)NC2(CC(=O)O)CCCC2)c1` [Compound 1046] belongs 22.2 nM. As to `CCN(CC)c1cc2oc(-c3ccc(F)cc3)c(C(=O)NC)c2cc1-c1cccc(C(=O)N[C@H]2CCCC[C@H]2C(=O)O)c1` [Compound 1047], the EC50 is under 100 nM.

Molecule `CCN(CC)c1cc2oc(-c3ccc(F)cc3)c(C(=O)NC)c2cc1-c1cccc(C(=O)N[C@@H]2CCCC[C@@H]2C(=O)O)c1` [Compound 2001] gave an EC50 of 100 to 1000 nM. Same read-out and setting: to `CCN(CC)c1cc2oc(-c3ccc(F)cc3)c(C(=O)NC)c2cc1-c1cccc(C(=O)NC2(CC(=O)O)CCCCC2)c1` [Compound 2002] belongs under 100 nM; to `CCOP(=O)(O)CCCNC(=O)c1cccc(-c2cc3c(C(=O)NC)c(-c4ccc(F)cc4)oc3cc2N(CC)CC)c1` [Compound 2003], over 1000 nM; to `CNC(=O)c1c(-c2ccc(F)cc2)oc2cc([N+](=O)[O-])c(-c3cccc(C(=O)NC(CO)(CO)CO)c3)cc12` [Compound 3001], 2540 nM.

As to `CNC(=O)c1c(-c2ccc(F)cc2)oc2cc([N+](=O)[O-])c(-c3cccc(C(=O)N(Cc4ccc(OC)cc4OC)C(CO)(CO)CO)c3)cc12` [Compound 3002], the EC50 is over 1000 nM.

`CNC(=O)c1c(-c2ccc(F)cc2)oc2cc(N)c(-c3cccc(C(=O)NC(CO)(CO)CO)c3)cc12` [Compound 3003]: the EC50 was over 1000 nM.

`CCNc1cc2oc(-c3ccc(F)cc3)c(C(=O)NC)c2cc1-c1cccc(C(=O)NC(CO)(CO)CO)c1` [Compound 3004] had an EC50 of under 100 nM. On the same count and under the same terms, to `CCN(CC)c1cc2oc(-c3ccc(F)cc3)c(C(=O)NC)c2cc1-c1cccc(C(=O)NC(CO)(CO)CO)c1` [Compound 3005] belongs under 100 nM; to `CCNc1cc2oc(-c3ccc(F)cc3)c(C(=O)NC)c2cc1-c1cccc(C(=O)NC2CCNC2=O)c1` (centres unmarked) [Compound 4001], 58.8 nM.

`CCNc1cc2oc(-c3ccc(F)cc3)c(C(=O)NC)c2cc1-c1cccc(C(=O)NCC(C)(C)C#N)c1` [Compound 4002] registered an EC50 of under 100 nM. On the same count and under the same terms, to `C#CC1(NC(=O)c2cccc(-c3cc4c(C(=O)NC)c(-c5ccc(F)cc5)oc4cc3NCC)c2)CCCCC1` [Compound 4003] belongs under 100 nM; to `CCNc1cc2oc(-c3ccc(F)cc3)c(C(=O)NC)c2cc1-c1cccc(C(=O)NC2(C#N)CCN(Cc3ccccc3)CC2)c1` [Compound 4004], under 100 nM; to `C#CC1(NC(=O)c2cccc(-c3cc4c(C(=O)NC)c(-c5ccc(F)cc5)oc4cc3N(CC)S(C)(=O)=O)c2)CCCCC1` [Compound 5001], under 100 nM. Same read-out and setting: to `CCN(c1cc2oc(-c3ccc(F)cc3)c(C(=O)NC)c2cc1-c1cccc(C(=O)NC2(C(F)(F)F)CCCC2)c1)S(C)(=O)=O` [Compound 5002] belongs 7 nM. The same measure, in the same setting: to `CCN(c1cc2oc(-c3ccc(F)cc3)c(C(=O)NC)c2cc1-c1cccc(C(=O)N[C@@H]2CCNC2=O)c1)S(C)(=O)=O` [Compound 5003] belongs 100 to 1000 nM; to `CCN(c1cc2oc(-c3ccc(F)cc3)c(C(=O)NC)c2cc1-c1cccc(C(=O)N[C@H]2CCNC2=O)c1)S(C)(=O)=O` [Compound 5004], 100 to 1000 nM; to `CCN(c1cc2oc(-c3ccc(F)cc3)c(C(=O)NC)c2cc1-c1cccc(C(=O)NC2(C#N)CCN(C(=O)OC(C)(C)C)CC2)c1)S(C)(=O)=O` [Compound 5005], under 100 nM. On to `CCN(c1cc2oc(-c3ccc(F)cc3)c(C(=O)NC)c2cc1-c1cccc(C(=O)NC2(C#N)CCc3cc(OC)ccc3C2)c1)S(C)(=O)=O` (centres unmarked) [Compound 5006], for which the EC50 was under 100 nM. Molecule `CCN(c1cc2oc(-c3ccc(F)cc3)c(C(=O)NC)c2cc1-c1cccc(C(=O)NC2(C#N)CCOCC2)c1)S(C)(=O)=O` [Compound 5007] registered an EC50 of 4.2 nM.

Molecule `CNC(=O)c1c(-c2ccc(F)cc2)oc2cc(N(CC3CC3)S(C)(=O)=O)c(-c3cccc(C(=O)NC(C)(C)C=O)c3)cc12` [Compound 6001] showed an EC50 of under 100 nM.

`CNC(=O)c1c(-c2ccc(F)cc2)oc2cc(N(CCF)S(C)(=O)=O)c(-c3cccc(C(=O)NCC4CCCC4NC(=O)OC(C)(C)C)c3)cc12` (centres unmarked) [Compound 7001] displayed an EC50 of under 100 nM.

In the next data set the test system is HCV.
Assay: not given
The note with it: extended dosing of the combination regimens; cited from earlier work.
With `CNC(=O)c1c(-c2ccc(F)cc2)oc2cc(N(CCO)S(C)(=O)=O)c(C3CC3)cc12` [HCV-796], the hepatic toxicity entry was “hepatic toxicity observed”.

Staying with this data set, now noted: single agent or combined with interferon and ribavirin; cited from earlier work.
As to `CNC(=O)c1c(-c2ccc(F)cc2)oc2cc(N(CCO)S(C)(=O)=O)c(C3CC3)cc12` [HCV-796], the “HCV RNA levels in patients” value is “reduce HCV RNA levels”.
